Measurements: patent US20070213301A1 (ACHILLION PHARMACEUTICALS, INC., priority 2006, published 2007)

The molecules below were run on HCV replicon (assay: HCV replicon replication assay (NPTII ELISA)). Conditions: Hepatitis C virus, Huh-7, 72 h, inhibition of HCV replicon replication in Huh-7 HCV replicon-containing cells, three days incubation, NPT level by ELISA; read-out: EC50.
Assay type: cell-based, Hepatitis C virus (Huh-7 cells)
Procedure: Compounds claimed herein are tested for the ability to inhibit viral replication of the Hepatitis C replicon in cultured cells in which the HCV replicon construct has been incorporated. The HCV replicon system was described by Bartenschlager, et. al (Science, 285, pp. 110-113 (1999)). The replicon system is predictive of in vivo anti-HCV activity; compounds that are active in humans uniformly evidence activity in the replicon assay.
In this assay HCV replicon containing cells are treated with different concentrations of the test compound to ascertain the ability of the test compound to suppress replication of the HCV replicon. As a positive control, HCV replicon-containing cells are treated with different concentrations of interferon alpha, a known inhibitor of HCV replication. The replicon assay system includes Neomycin Phosphotransferase (NPT) as a component of the replicon itself in order to detect the transcription of replicon gene products in the host cell. Cells in which the HCV replicon is actively replicating have high levels of NPT; the level of NPT is proportional to HCV replication. […] The NPT level of each sample is measured using a captured ELISA.
The HCV replicon contains, 5′-3′, the HCV-IRES, the neomycin phosphotransferase (neo) gene, the IRES of encephalomyocarditis virus, which directs translation of HCV sequences NS3 to NS5B, and the 3′-NTR. The sequence of the HCV replicon has been deposited in GenBank (Accession no. AJ242652).
The replicon is transfected into Huh-7 cells using standard methods such as electroporation.
The cells are then seeded onto 96-well plates at a density of 6000-7500 cells/100 microliters/well (6-7.5×10^5 cells/10 ml/plate). The plates are then incubated at 37° C. in a 5% CO2 incubator.
HCV replicon-containing cells are rinsed with once PBS once; 2 mls of trypsin are then added. Cells are incubated at 37° C. in a 5% CO2 incubator for 3-5 minutes. 10 mls of complete medium is added to stop the reaction. Cells are blown gently, put into a 15 ml tube, and spun at 1200 rpm for four minutes. The trypsin/medium solution is removed and 5 mls of medium (500 ml DMEM (high glucose)) from BRL catalog #12430-054; 50 mls 10% FBS, 5% Geneticin G418 (50 mg/ml, BRL catalog #10131-035), 5 ml MEM non-essential amino acids (100× BRL #11140-050) and 5 ml pen-strep (BRL #15140-148) is added. The cells and media are mixed carefully
Cells are plated with screening medium (500 ml DMEM (BRL #21063-029), 50 ml FBS (BRL #10082-147) and 5 ml MEM non-essential amino acid (BRL #11140-050) at 6000-7500 cells/100 μl/well of 96 well plate (6-7.5×10^5 cells/10 ml/plate). Plates are placed into 37° C. 5% CO2 incubator overnight.
The following morning, drugs (test compounds or interferon alpha) are diluted in 96 well U bottom plates with media or DMSO/media, depending on the final concentration chosen for screening. Generally for 6 concentrations of each test compounds ranging from 10 micromolar to 0.03 micromolar are applied. 100 μl of the test compound dilution is placed in wells of the 96 well plate containing the HCV replicon cells. Media without drug is added to some wells as a negative controls. DMSO is known to affect cell growth. Therefore, if drugs diluted in DMSO are used, all wells, including negative control (media only) and positive control (interferon alpha) wells, must contain the same concentration of DMSO, for single dose screening. The plates are incubated at 37° C. in a humidified 5% CO2 environment for three days.
On day four, the NTPII assay is quantitated. The medium is poured from the plates and the plates are washed once in 200 μl of PBS. The PBS is then decanted and the plates tapped in a paper towel to remove any remaining PBS. Cells are fixed in situ with 100 μl/well of pre-cooled (−20° C.) methanol:acetone (1:1) and the plates are placed at −20° C. for 30 minutes.
The fixing solution is poured from the plates and the plates allowed to air-dry completely (approximately one hour). […]

Q: How did the EC50 turn out when `CCCCCOc1ccc(N(C(N)=O)c2nc(-c3cccnc3C)cs2)cc1C(F)(F)F` [Compound 70, 1-(4-(2-methylpyridin-3-yl)thiazol-2-yl)-1-(4-(pentyloxy)-3-(trifluoromethyl)phenyl)urea] was run?
A: < 1 µM

Q: With `NC(=O)N(c1ccc(OCC2CCCCC2)c(F)c1)c1nc(-c2ccncc2)cs1` [Compound 142, 1-(4-(cyclohexylmethoxy)-3-fluorophenyl)-1-(4-(pyridin-4-yl)thiazol-2-yl)urea] as the molecule, how does the EC50 read?
A: 1 to 10 µM

Q: `CCCCCCCCOc1ccc(N(C(=O)C(=O)OC)c2nc(-c3ccc(F)c(F)c3)cs2)cc1` [Compound 58, methyl 2-((4-(3,4-difluorophenyl)thiazol-2-yl)(4-(octyloxy)phenyl)amino)-2-oxoacetate] was tested. Which EC50 did it give?
A: < 1 µM

Q: Which EC50 does the source give for `CCCCCCCCc1ccc(N(C(=O)C(=O)OC)c2nc(-c3cccnc3)cs2)cc1` [Compound 39, methyl 2-((4-octylphenyl)(4-(pyridin-3-yl)thiazol-2-yl)amino)-2-oxoacetate] here?
A: < 1 µM

Q: With `CC(C)COc1ccc(N(C(N)=O)c2nc(-c3cccnc3)cs2)cc1C(F)(F)F` [Compound 151, 1-(4-isobutoxy-3-(trifluoromethyl)phenyl)-1-(4-(pyridin-3-yl)thiazol-2-yl)urea] as the molecule, how does the EC50 read?
A: < 1 µM

Q: How did the EC50 turn out when `CCCCCCCCc1ccc(N(C(=O)OCCOP(=O)(O)O)c2nc(-c3cccnc3)c(F)s2)cc1C(F)(F)F` [Compound 183, 2-(phosphonooxy)ethyl 5-fluoro-4-(pyridin-3-yl)thiazol-2-yl(4-octyl-3-(trifluoromethyl)phenyl)carbamate] was run?
A: < 1 µM

Q: For `CCCCCCCCc1ccc(N(C(=O)CN(C)C)c2nc(-c3cccnc3)c(F)s2)cc1C(F)(F)F` [Compound 170, 2-(dimethylamino)-N-(5-fluoro-4-(pyridin-3-yl)thiazol-2-yl)-N-(4-octyl-3-(trifluoromethyl)phenyl)acetamide], which EC50 is on record?
A: < 1 µM

Q: With `CCCCCOc1ccc(N(C(C)=O)c2nc(-c3cccnc3)cs2)cc1C(F)(F)F` [Compound 12, N-(4-(pentyloxy)-3-(trifluoromethyl)phenyl)-N-(4-(pyridin-3-yl)thiazol-2-yl)acetamide] as the molecule, how does the EC50 read?
A: < 1 µM

Q: How did the EC50 turn out when `CCCCCOc1ccc(N(C(=O)OC)c2nc(-c3ccncc3)cs2)cc1C(F)(F)F` [Compound 36, methyl 4-(pentyloxy)-3-(trifluoromethyl)phenyl(4-(pyridin-4-yl)thiazol-2-yl)carbamate] was run?
A: < 1 µM

Q: How did the EC50 turn out when `CCCCCOc1ccc(N(C(N)=O)c2nc(-c3ccc(F)cc3F)cs2)cc1C(F)(F)F` [Compound 86, 1-(4-(2,4-difluorophenyl)thiazol-2-yl)-1-(4-(pentyloxy)-3-(trifluoromethyl)phenyl)urea] was run?
A: < 1 µM

Q: `CCCCCCCCc1ccc(N(C(=O)OCOC(=O)C(N)C(C)C)c2nc(-c3cccnc3)c(F)s2)cc1C(F)(F)F` (stereo not drawn) [Compound 186, ((5-fluoro-4-(pyridin-3-yl)thiazol-2-yl)(4-octyl-3-(trifluoromethyl)phenyl)carbamoyloxy) methyl 2-amino-3-methylbutanoate] was tested. Which EC50 did it give?
A: < 1 µM

Q: `CCCCCCCOc1ccc(N(C(=O)C(=O)OC)c2nc(-c3ccc(Cl)s3)cs2)cc1` [Compound 98, methyl 2-((4-(5-chlorothiophen-2-yl)thiazol-2-yl)(4-(heptyloxy)phenyl)amino)-2-oxoacetate] was tested. Which EC50 did it give?
A: < 1 µM

Q: Which EC50 does the source give for `CCCCCOc1ccc(N(C(=O)CN(C)C)c2nc(-c3cccnc3)cs2)cc1C(F)(F)F` [Compound 41, 2-(dimethylamino)-N-(4-(pentyloxy)-3-(trifluoromethyl)phenyl)-N-(4-(pyridin-3-yl)thiazol-2-yl)acetamide] here?
A: < 1 µM

Q: With `CCCCCOc1ccc(N(C(=O)C2CC2)c2nc(-c3ccc(CN(C)C)nc3)cs2)cc1C(F)(F)F` [Compound 17, N-(4-(6-((dimethylamino)methyl)pyridin-3-yl)thiazol-2-yl)-N-(4-(pentyloxy)-3-(trifluoromethyl)phenyl)cyclopropane-carboxamide] as the molecule, how does the EC50 read?
A: 1 to 10 µM

Q: With `CCCCCOc1ccc(N(C(=O)C2CC2)c2nc(-c3cccnc3)cs2)cc1F` [Compound 26, N-(3-fluoro-4-(pentyloxy)phenyl)-N-(4-(pyridin-3-yl)thiazol-2-yl)cyclopropanecarboxamide] as the molecule, how does the EC50 read?
A: < 1 µM

Q: Which EC50 does the source give for `COc1ccc(N(C(N)=O)c2nc(-c3ccc(F)cc3)cs2)cc1C(F)(F)F` [Compound 85, 1-(4-(4-fluorophenyl)thiazol-2-yl)-1-(4-methoxy-3-(trifluoromethyl)phenyl)urea] here?
A: < 1 µM

Q: Which EC50 does the source give for `CCCCCOc1ccc(N(C(=O)C(=O)OC)c2nc(-c3ccc4[nH]c(=O)oc4c3)cs2)cc1C(F)(F)F` [Compound 100, methyl 2-oxo-2-((4-(2-oxo-2,3-dihydrobenzo[d]oxazol-6-yl)thiazol-2-yl)(4-(pentyloxy)-3-(trifluoromethyl)phenyl)amino)acetate] here?
A: < 1 µM

Q: With `CCCCCCCOc1ccc(N(C(N)=O)c2nc(-c3ccc(C(=O)N(C)C)nc3)cs2)cc1` [Compound 79, 5-(2-(1-(4-(heptyloxy)phenyl)ureido)thiazol-4-yl)-N,N-dimethylpicolinamide] as the molecule, how does the EC50 read?
A: > 10 µM

Q: With `CCCCCCOc1ccc(N(C(N)=O)c2nc(-c3ccncc3)cs2)cc1` [Compound 146, 1-(4-(hexyloxy)phenyl)-1-(4-(pyridin-4-yl)thiazol-2-yl)urea] as the molecule, how does the EC50 read?
A: 1 to 10 µM

Q: How did the EC50 turn out when `CCCCCN(C)c1ccc(N(C(=O)COC(C)=O)c2nc(-c3cccnc3)cs2)cc1C(F)(F)F` [Compound 51, 2-((4-(methyl(pentyl)amino)-3-(trifluoromethyl)phenyl)(4-(pyridin-3-yl)thiazol-2-yl)amino)-2-oxoethyl acetate] was run?
A: < 1 µM

Q: For `CCCCCCCCc1ccc(N(C(=O)C(N)C(C)C)c2nc(-c3cccnc3)c(F)s2)cc1C(F)(F)F` (stereo not drawn) [Compound 180, 2-amino-N-(5-fluoro-4-(pyridin-3-yl)thiazol-2-yl)-3-methyl-N-(4-octyl-3-(trifluoromethyl)phenyl)butanamide], which EC50 is on record?
A: < 1 µM

Q: With `CCCCCOc1ccc(N(C)c2nc(-c3ccc(CN4CCOCC4)nc3)cs2)cc1C(F)(F)F` [Compound 8, N-methyl-4-(6-(morpholinomethyl)pyridin-3-yl)-N-(4-(pentyloxy)-3-(trifluoromethyl)phenyl)thiazol-2-amine] as the molecule, how does the EC50 read?
A: 1 to 10 µM

Q: For `CCCCCOc1ccc(N(C(=O)NC(C)(C)C)c2nc(-c3cccnc3)cs2)cc1C(F)(F)F` [Compound 76, 3-tert-butyl-1-(4-(pentyloxy)-3-(trifluoromethyl)phenyl)-1-(4-(pyridin-3-yl)thiazol-2-yl)urea], which EC50 is on record?
A: < 1 µM

Q: With `CCCCCCCCOc1ccc(N(C(=O)c2cccnc2)c2nc(-c3nc4ccccc4s3)cs2)cc1` [Compound 101, N-(4-(benzo[d]thiazol-2-yl)thiazol-2-yl)-N-(4-(octyloxy)phenyl)nicotinamide] as the molecule, how does the EC50 read?
A: 1 to 10 µM

Q: For `CCCCCOc1ccc(N(CC(=O)N(CC)CC)c2nc(-c3cccnc3)cs2)cc1C(F)(F)F` [Compound 9, N,N-diethyl-2-((4-(pentyloxy)-3-(trifluoromethyl)phenyl)(4-(pyridin-3-yl)thiazol-2-yl)amino)acetamide], which EC50 is on record?
A: > 10 µM

Q: Which EC50 does the source give for `CCCCCCCCOc1ccc(N(C(N)=O)c2nc(-c3cccnc3)cs2)cc1` [Compound 72, 1-(4-(octyloxy)phenyl)-1-(4-(pyridin-3-yl)thiazol-2-yl)urea] here?
A: < 1 µM

Q: `CCCCOc1ccc(N(C(N)=O)c2nc(-c3ccncc3)cs2)cc1C(F)(F)F` [Compound 137, 1-(4-butoxy-3-(trifluoromethyl)phenyl)-1-(4-(pyridin-4-yl)thiazol-2-yl)urea] was tested. Which EC50 did it give?
A: < 1 µM
